Reference: patent publication US20040171086A1, “Selective modulation of TLR-mediated biological activity” (3M Innovative Properties Company, priority 2003, published 2004)

Experiments:
[1] = test system: myeloid dendritic cells (mDCs); assay: Activation of blood myeloid dendritic cells (CD80/HLA-DR staining, flow cytometry); assay type: cell-based, human; conditions: two donors; 1 μM IRM or 3 μM CpG2216, 16-24 hours; HLA-DR positive with increased CD80; FIG. 1
Protocol: The blood myeloid dendritic cells (mDC) were isolated from the BDCA-4 negative cell fraction using the Miltenyi Microbead technology system (Miltenyi BioTec, Auburn, Calif.). Cells were resuspended in 4° C. separation buffer (PBS- pH 7.2, 0.5% BSA-2.5 gm, 2 mM 0.5M EDTA) at 20 μl per 10^7 total cells. […] The cells were resuspended in 500 μL of separation buffer per 10^8 total cells. […] BDCA-1^+mDCs were enriched using the Miltenyi Automacs POSSELD software. The cells retained in the column were eluted into a sterile 50 mL polystyrene conical tube.
(§1) Compounds, reconstituted in dimethyl sulfoxide (DMSO, sterile cell culture grade, Sigma Chemical Co., St. Louis, Mo.) were added at 2× their final concentration to a 96-well flat-bottom sterile tissue culture polystyrene plate (Benton Dickinson Labware, Franklin Lakes, N.J.). Cells were then added at 2× the final concentration (final cell concentration is 1×10^6 cells/mL). Plates were incubated for 16-24 hours at 37° C., 5% CO2. After incubation, plates were centrifuged at 1000 RPM for 10 minutes at 25° C. Supernatants were transferred to a 0.75 mL sterile polypropylene Matrix box (Matrix, Hudson, N.Y.) and stored at −20° C. for future cytokine analysis.

[2] = test system: plasmacytoid dendritic cells (pDCs); assay: Activation of plasmacytoid dendritic cells (CD80/HLA-DR staining, flow cytometry); assay type: cell-based, human; conditions: two donors; 1 μM IRM or 3 μM CpG2216, 16-24 hours; HLA-DR positive with increased CD80; FIG. 2
Protocol: The cells were resuspended in 500 μL of separation buffer per 10^8 total cells. […] The cells retained in the column were eluted into a sterile 50 mL polystyrene conical tube.
as §1

**Q.** `CCOCc1nc2c(N)nc3c(c2n1CC(C)(C)O)CCCC3` [IRM16, 4-amino-2-ethoxymethyl-α,α-dimethyl-6,7,8,9-tetrahydro-1H-imidazo[4,5-c]quinoline-1-ethanol] was tested. Which “activation of myeloid dendritic cells (mDCs) in vitro” value [1] did it give?
**A.** The value was “activated”.

**Q.** What about the “activation of plasmacytoid dendritic cells (pDCs) in vitro” value [2] of the same molecule?
**A.** The value was “activated”.
